Series [1] deals with compound 48/80-induced scratching behaviour in mice. As to the kind of experiment: Antipruritic effect by nasal drip in mouse models with pruritus induced by compound 48/80. Format: in vivo, ICR mice. Here is the method:
(§1) ICR mice (males) from Beijing Vital River Laboratory Animal Technology Co., Ltd. were randomly grouped, and then different doses of compound 1 or normal saline were administered by nasal drip. After 15 min, 50 μg of compound 48/80 (Sigma, Cat #: C2313) was injected subcutaneously into the nape of the mice, and the times of scratching of mice within 30 min after injection of compound 48/80 was immediately recorded. The obtained data were processed according to the formula [(times of scratching in solvent control group−times of scratching in administration group)/times of scratching in solvent control group×100] to calculate the inhibition ratio on scratching. Statistical analysis was performed with Graphpad Prism 8 software, and fitting was performed to obtain the ED50 value.

Series [2] shares this test system. As to the kind of experiment: Antipruritic effect in mouse models with pruritus induced by compound 48/80, intravenous administration. Format: in vivo, ICR mice. Here is the method:
as §1, with “then administered intravenously with” for “then”, “saline.” for “saline were administered by nasal drip.”

The test system of series [3] is haemodialysis subjects with pruritus. The series can be described thus: Phase II clinical study of safety, pharmacokinetics and efficacy in haemodialysis subjects. The format is in vivo, human. Here is the method: For compound 1, a multi-centre, randomized, double-blind, placebo-controlled phase II clinical trial for evaluating the safety, pharmacokinetics and efficacy of compound 1 injection in haemodialysis subjects was performed. This study was divided into two phases.
Phase I was a dose-escalation, randomized, double-blind, placebo-controlled study of multiple intravenous administration within 1 week in haemodialysis subjects, in which 40 haemodialysis subjects were scheduled to be enrolled into 4 dose groups: 0.05 μg/kg, 0.15 μg/kg, 0.30 μg/kg and 0.80 μg/kg, with 10 subjects in each group (including 2 subjects in placebo group), and the experimental drug was administered 3 times in each dose group on D1, D3 and D5, respectively.
Phase II was a randomized, double-blind, placebo-controlled study of administration for 12 weeks in haemodialysis subjects with moderate or more severe pruritus. According to the results of phase I study, two dose groups (0.3 μg/kg and 0.6 μg/kg) and a placebo group as control were selected for phase II study, in which 90 haemodialysis subjects with moderate or more severe pruritus were scheduled to be enrolled and assigned to the above-mentioned three groups according to a ratio of 1:1:1, with 30 subjects scheduled to be enrolled in each group, and compound 1 injection or placebo was administered, respectively.

Series [4] deals with serotonin hydrochloride-induced scratching behaviour in rats. The series can be described thus: Antipruritic effect of single administration in rat models with pruritus induced by serotonin hydrochloride. Format: in vivo, SD rats. The note with it: intravenous. Here is the method:
SD rats (males) from Beijing Vital River Laboratory Animal Technology Co., Ltd. were randomly grouped, and then administered intravenously with different doses of compound 1 or normal saline. After 15 min, 10 μL of 2% serotonin hydrochloride (Sigma) was injected intradermally into the nape of the rats, and the times of scratching of rats within 60 min after injection of serotonin hydrochloride was immediately recorded. The obtained data were processed according to the formula [(times of scratching in solvent control group−times of scratching in administration group)/times of scratching in solvent control group×100] to calculate the inhibition ratio on scratching. Statistical analysis was performed with Graphpad Prism 8 software, and fitting was performed to obtain the ED50 value.

Setting [5] is: 15 min before compound 48/80 s.c., scratching within 30 min.
The mark [6] stands for this setting: maintenance haemodialysis, dose of 0.05 μg/kg to 0.80 μg/kg.
Setting [7] is: maintenance haemodialysis, multiple times a week for consecutive 12 weeks.
The mark [8] stands for this setting: phase I, 0.05-0.80 μg/kg i.v. on D1, D3, D5, each group after treatment.
Setting [9] is: phase II, 0.3 and 0.6 μg/kg, 12 weeks, each group after treatment.
The mark [10] stands for this setting: 15 min before serotonin hydrochloride intradermal, scratching within 60 min.

The structures appear in SMILES notation.

As to `CC(=O)N1CC2(CCN(C(=O)[C@@H](CCCCN)NC(=O)[C@@H](CC(C)C)NC(=O)[C@@H](Cc3ccccc3)NC(=O)[C@H](N)Cc3ccccc3)CC2)C1` [Compound 1, (2R)—N-[(1R)-1-(2-acetyl-2,7-diazaspiro[3.5]nonane-7-carbonyl)-5-amino-pentyl]-2-[[(2R)-2-[[(2R)-2-amino-3-phenyl-propionyl]amino]-3-phenylpropionyl]amino]-4-methyl-pentanamide], in series [1], the “inhibition of compound 48/80-induced scratching behaviour” value was “inhibited the compound 48/80-induced scratching behaviour in mice in a dose-dependent manner”. Moreover, in series [1] (setting [5]), the “ED50 value (inhibition ratio on scratching)” value came out at 2.72 mg/kg and the antipruritic effective dose turned out to be 0.3 mg/kg. In series [2], the “inhibition of compound 48/80-induced scratching behaviour” value was “inhibited the compound 48/80-induced scratching behaviour in mice in a dose-dependent manner”. Also, in series [2] (setting [5]), the “ED50 value (inhibition ratio on scratching)” value was 0.09 mg/kg and the antipruritic effective dose is 0.03 mg/kg. Moreover, in series [3] (0.30 μg/kg group), the “improvement compared to the placebo group” value is recorded as “more significant improvement” and the “maintenance of therapeutic effects after discontinuation” value is reported as “good maintenance of therapeutic effects after discontinuation”. Besides, in series [3] (setting [6]), the safety entry is given as “generally safe”, the “serious adverse events related to the experimental drug” value was “no serious adverse events related to the experimental drug” and the “withdrawal tendency after discontinuation” value is listed as “no obvious withdrawal tendency after discontinuation”. Besides, in series [3] (setting [7]), the “overall quality of life” value is given as “improved” and the “pruritus symptoms in patients with chronic kidney diseases” value is on record as “could be effectively relieved”. In series [3] (setting [8]), the NRS scores result is “all decreased compared to baseline” and the “total score of Skindex-16 scale” value is listed as “decreased”. Moreover, in series [3] (setting [9]), the NRS scores result is “all decreased compared to baseline”; the “total score and dimension scores of 5-D scale” value is “all decreased compared to baseline”; the “total score and dimension scores of Skindex-16 scale” value was “all decreased compared to baseline”. In addition, in series [4], the “inhibition of serotonin hydrochloride-induced scratching behaviour” value was “inhibited the serotonin hydrochloride-induced scratching behaviour in rats in a dose-dependent manner”. In series [4] (setting [10]), the “ED50 value (inhibition ratio on scratching)” value amounted to 0.03 mg/kg and the antipruritic effective dose was 0.03 mg/kg.

For the origin of these results see US20240207353A1, “USE OF PEPTIDE AMIDE COMPOUND IN PREPARATION OF DRUG FOR TREATING PRURITUS” (XIZANG HAISCO PHARMACEUTICAL CO., LTD., priority 2021, published 2024).
